Assay results: ChEMBL document CHEMBL4507279, “Data for DCP probe BI-9627” (2021)

Columns and labels:
[1] = system: Epidermal growth factor receptor (Homo sapiens), P00533 [T790M]; settings: Compound concentration 1000.0 nM
[2] = system: Proto-oncogene tyrosine-protein kinase receptor Ret (Homo sapiens), P07949 [V804M]; settings: Compound concentration 1000.0 nM
[3] = molecular target: Mitogen-activated protein kinase 10 (Homo sapiens) (UniProt P53779); settings: Compound concentration 1000.0 nM
[4] = molecular target: Dual specificity protein kinase CLK3 (Homo sapiens) (UniProt P49761); settings: Compound concentration 1000.0 nM
[5] = molecular target: LIM domain kinase 2 (Homo sapiens) (UniProt P53671); settings: Compound concentration 1000.0 nM
[6] = system: Proto-oncogene tyrosine-protein kinase receptor Ret (Homo sapiens), P07949 [V804L]; settings: Compound concentration 1000.0 nM
[7] = molecular target: Sodium-dependent serotonin transporter (Homo sapiens) (UniProt P31645); settings: Compound concentration 10.0 uM
Chain of Sodium-dependent serotonin transporter (Homo sapiens) (P31645 whole entry, looked up): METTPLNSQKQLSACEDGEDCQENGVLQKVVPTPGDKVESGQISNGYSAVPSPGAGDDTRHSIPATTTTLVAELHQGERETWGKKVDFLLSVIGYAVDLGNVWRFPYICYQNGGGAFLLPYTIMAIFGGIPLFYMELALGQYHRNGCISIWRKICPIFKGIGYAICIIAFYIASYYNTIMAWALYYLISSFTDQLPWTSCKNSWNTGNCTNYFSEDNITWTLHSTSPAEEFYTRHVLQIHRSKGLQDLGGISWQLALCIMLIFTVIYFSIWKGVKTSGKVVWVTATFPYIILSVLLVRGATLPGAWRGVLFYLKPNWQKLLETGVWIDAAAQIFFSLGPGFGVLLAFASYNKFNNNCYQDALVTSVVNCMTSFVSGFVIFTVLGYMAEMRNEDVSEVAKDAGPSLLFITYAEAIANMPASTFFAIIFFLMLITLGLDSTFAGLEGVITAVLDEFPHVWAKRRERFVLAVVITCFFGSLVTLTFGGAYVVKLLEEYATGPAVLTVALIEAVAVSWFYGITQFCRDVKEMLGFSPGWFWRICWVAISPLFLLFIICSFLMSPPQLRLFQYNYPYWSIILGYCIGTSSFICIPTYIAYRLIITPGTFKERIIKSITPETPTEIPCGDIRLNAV

[8] = molecular target: Serine/threonine-protein kinase PLK2 (Homo sapiens) (UniProt Q9NYY3); settings: Compound concentration 1000.0 nM
[9] = molecular target: Serine/threonine-protein kinase TAO2 (Homo sapiens) (UniProt Q9UL54); settings: Compound concentration 1000.0 nM
Chain of Serine/threonine-protein kinase TAO2 (Homo sapiens) (Q9UL54 whole entry): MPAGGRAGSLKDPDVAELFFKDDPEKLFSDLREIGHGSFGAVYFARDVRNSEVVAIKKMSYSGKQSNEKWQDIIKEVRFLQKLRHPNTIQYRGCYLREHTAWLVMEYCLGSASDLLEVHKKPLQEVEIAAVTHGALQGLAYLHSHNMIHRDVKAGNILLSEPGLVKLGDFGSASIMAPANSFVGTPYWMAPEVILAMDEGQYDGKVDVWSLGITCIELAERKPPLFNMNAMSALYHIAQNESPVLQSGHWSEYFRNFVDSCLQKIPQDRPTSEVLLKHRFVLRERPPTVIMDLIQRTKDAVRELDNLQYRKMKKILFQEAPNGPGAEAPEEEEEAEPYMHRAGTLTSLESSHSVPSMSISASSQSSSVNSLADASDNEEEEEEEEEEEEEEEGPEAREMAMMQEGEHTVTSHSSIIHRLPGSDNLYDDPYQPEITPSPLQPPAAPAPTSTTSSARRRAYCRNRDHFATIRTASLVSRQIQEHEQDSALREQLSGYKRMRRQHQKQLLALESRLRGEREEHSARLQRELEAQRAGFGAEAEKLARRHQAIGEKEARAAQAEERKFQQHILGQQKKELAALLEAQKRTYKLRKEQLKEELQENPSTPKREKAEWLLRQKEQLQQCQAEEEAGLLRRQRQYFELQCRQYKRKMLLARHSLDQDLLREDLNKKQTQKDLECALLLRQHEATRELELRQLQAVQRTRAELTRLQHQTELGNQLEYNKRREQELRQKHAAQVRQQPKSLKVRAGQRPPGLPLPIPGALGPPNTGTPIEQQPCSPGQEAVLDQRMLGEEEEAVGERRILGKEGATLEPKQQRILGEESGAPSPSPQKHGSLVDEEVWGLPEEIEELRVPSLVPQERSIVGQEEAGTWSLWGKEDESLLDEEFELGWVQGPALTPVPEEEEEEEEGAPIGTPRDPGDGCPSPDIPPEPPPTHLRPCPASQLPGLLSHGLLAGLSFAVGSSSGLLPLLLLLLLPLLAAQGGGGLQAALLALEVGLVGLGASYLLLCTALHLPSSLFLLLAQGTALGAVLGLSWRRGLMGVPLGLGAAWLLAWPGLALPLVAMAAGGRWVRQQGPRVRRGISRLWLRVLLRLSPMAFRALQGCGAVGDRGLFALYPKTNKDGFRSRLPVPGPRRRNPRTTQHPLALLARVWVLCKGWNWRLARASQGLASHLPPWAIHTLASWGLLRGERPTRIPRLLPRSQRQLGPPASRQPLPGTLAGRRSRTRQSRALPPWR

[10] = molecular target: Tyrosine-protein kinase ITK/TSK (Homo sapiens) (UniProt Q08881); settings: Compound concentration 1000.0 nM
[11] = system: Tyrosine-protein kinase ABL1 (Homo sapiens), P00519 [F317L]; settings: Compound concentration 1000.0 nM
[12] = molecular target: Cyclin-dependent kinase 2 homolog (Plasmodium falciparum (isolate 3D7)) (UniProt P61075); settings: Compound concentration 1000.0 nM
[13] = molecular target: Dual specificity mitogen-activated protein kinase kinase 2 (Homo sapiens) (UniProt P36507); settings: Compound concentration 1000.0 nM
[14] = molecular target: Myosin-IIIb (Homo sapiens) (UniProt Q8WXR4); settings: Compound concentration 1000.0 nM
[15] = molecular target: 5-hydroxytryptamine receptor 1B (Homo sapiens) (UniProt P28222); settings: Compound concentration 10.0 uM
[16] = molecular target: Macrophage-stimulating protein receptor (Homo sapiens) (UniProt Q04912); settings: Compound concentration 1000.0 nM
[17] = molecular target: Fibroblast growth factor receptor 3 (Homo sapiens) (UniProt P22607); settings: Compound concentration 1000.0 nM
[18] = molecular target: Dual specificity mitogen-activated protein kinase kinase 6 (Homo sapiens) (UniProt P52564); settings: Compound concentration 1000.0 nM
Chain of Dual specificity mitogen-activated protein kinase kinase 6 (Homo sapiens) (P52564 whole entry): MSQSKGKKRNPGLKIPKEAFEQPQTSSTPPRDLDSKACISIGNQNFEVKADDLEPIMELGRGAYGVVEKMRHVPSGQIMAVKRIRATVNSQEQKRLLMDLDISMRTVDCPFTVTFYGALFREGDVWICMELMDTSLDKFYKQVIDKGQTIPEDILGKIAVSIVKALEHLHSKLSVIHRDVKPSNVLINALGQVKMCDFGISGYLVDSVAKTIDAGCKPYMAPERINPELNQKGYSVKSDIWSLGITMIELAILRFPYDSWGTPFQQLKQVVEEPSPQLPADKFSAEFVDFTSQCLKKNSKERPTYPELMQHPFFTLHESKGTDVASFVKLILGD

[19] = system: Epidermal growth factor receptor (Homo sapiens), P00533 [UNDEFINED MUTATION]; settings: Compound concentration 1000.0 nM
[20] = molecular target: Glycogen synthase kinase-3 beta (Homo sapiens) (UniProt P49841); settings: Compound concentration 1000.0 nM
[21] = molecular target: Serine/threonine-protein kinase VRK2 (Homo sapiens) (UniProt Q86Y07); settings: Compound concentration 1000.0 nM
[22] = molecular target: Dual specificity mitogen-activated protein kinase kinase 1 (Homo sapiens) (UniProt Q02750); settings: Compound concentration 1000.0 nM
[23] = molecular target: Cyclin-dependent kinase 8 (Homo sapiens) (UniProt P49336); settings: Compound concentration 1000.0 nM
[24] = molecular target: Maternal embryonic leucine zipper kinase (Homo sapiens) (UniProt Q14680); settings: Compound concentration 1000.0 nM
[25] = molecular target: Serine/threonine-protein kinase RIO3 (Homo sapiens) (UniProt O14730); settings: Compound concentration 1000.0 nM
[26] = system: Tyrosine-protein kinase ABL1 (Homo sapiens), P00519 [T315I]; settings: Compound concentration 1000.0 nM
[27] = molecular target: STE20-like serine/threonine-protein kinase (Homo sapiens) (UniProt Q9H2G2); settings: Compound concentration 1000.0 nM
Chain of STE20-like serine/threonine-protein kinase (Homo sapiens) (Q9H2G2 whole entry, looked up): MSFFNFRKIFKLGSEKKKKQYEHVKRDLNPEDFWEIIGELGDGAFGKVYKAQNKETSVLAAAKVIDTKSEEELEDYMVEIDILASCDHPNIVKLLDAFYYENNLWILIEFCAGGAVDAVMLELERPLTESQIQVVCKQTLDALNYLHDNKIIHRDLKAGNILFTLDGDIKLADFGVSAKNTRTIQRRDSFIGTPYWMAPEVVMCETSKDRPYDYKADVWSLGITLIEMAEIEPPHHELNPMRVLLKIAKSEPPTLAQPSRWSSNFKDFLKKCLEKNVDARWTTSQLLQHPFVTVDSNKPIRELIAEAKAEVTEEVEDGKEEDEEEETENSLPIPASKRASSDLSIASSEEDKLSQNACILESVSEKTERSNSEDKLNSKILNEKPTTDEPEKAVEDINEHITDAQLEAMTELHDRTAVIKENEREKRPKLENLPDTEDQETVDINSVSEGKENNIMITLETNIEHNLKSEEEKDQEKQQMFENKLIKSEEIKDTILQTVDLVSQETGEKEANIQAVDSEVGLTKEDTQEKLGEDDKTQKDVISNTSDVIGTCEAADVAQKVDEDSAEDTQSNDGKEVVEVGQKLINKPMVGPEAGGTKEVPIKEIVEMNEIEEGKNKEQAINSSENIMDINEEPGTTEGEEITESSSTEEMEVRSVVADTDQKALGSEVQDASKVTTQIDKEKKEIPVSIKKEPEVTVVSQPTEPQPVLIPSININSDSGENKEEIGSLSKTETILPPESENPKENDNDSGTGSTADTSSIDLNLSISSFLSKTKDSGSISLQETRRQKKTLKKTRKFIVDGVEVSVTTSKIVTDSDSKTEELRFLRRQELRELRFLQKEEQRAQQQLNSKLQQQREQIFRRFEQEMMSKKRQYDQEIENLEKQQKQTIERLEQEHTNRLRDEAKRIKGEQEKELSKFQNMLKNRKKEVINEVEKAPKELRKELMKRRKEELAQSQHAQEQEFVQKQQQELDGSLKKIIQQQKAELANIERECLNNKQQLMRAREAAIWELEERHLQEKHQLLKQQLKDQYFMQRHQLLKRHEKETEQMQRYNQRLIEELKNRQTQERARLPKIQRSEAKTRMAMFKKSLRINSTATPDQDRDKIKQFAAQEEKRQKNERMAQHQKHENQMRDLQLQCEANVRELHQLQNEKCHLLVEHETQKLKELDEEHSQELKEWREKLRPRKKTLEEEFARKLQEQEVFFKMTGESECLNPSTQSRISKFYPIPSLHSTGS

[28] = molecular target: Tyrosine-protein kinase Fgr (Homo sapiens) (UniProt P09769); settings: Compound concentration 1000.0 nM
[29] = molecular target: Activin receptor type-2A (Homo sapiens) (UniProt P27037); settings: Compound concentration 1000.0 nM
[30] = molecular target: Dual specificity testis-specific protein kinase 1 (Homo sapiens) (UniProt Q15569); settings: Compound concentration 1000.0 nM
[31] = molecular target: Mitogen-activated protein kinase 1 (Homo sapiens) (UniProt P28482); settings: Compound concentration 1000.0 nM
[32] = system: Serine/threonine-protein kinase B-raf (Homo sapiens), P15056 [V600E]; settings: Compound concentration 1000.0 nM
Chain of Serine/threonine-protein kinase B-raf (Homo sapiens), P15056 [V600E] (P15056 whole entry V600E): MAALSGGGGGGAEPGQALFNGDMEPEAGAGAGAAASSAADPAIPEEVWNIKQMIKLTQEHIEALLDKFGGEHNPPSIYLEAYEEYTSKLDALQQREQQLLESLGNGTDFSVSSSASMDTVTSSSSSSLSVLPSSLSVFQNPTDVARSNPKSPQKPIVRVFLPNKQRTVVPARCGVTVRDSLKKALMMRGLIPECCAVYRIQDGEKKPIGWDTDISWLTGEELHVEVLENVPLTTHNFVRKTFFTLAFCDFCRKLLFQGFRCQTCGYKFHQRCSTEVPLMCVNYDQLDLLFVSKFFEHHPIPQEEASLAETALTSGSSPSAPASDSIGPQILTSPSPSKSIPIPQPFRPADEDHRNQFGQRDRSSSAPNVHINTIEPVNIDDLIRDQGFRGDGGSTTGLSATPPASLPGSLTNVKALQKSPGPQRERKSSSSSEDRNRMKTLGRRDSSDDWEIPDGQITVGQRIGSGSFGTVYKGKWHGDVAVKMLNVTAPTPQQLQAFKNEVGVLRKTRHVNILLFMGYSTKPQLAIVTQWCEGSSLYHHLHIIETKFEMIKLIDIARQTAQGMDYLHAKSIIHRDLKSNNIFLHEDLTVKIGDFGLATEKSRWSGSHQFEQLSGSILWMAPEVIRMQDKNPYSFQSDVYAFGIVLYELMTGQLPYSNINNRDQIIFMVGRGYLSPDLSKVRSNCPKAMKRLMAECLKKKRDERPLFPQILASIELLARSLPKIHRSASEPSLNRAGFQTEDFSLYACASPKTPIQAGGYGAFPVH

[33] = molecular target: 1-phosphatidylinositol 3-phosphate 5-kinase (Homo sapiens) (UniProt Q9Y2I7); settings: Compound concentration 1000.0 nM
[34] = molecular target: Casein kinase I isoform gamma-2 (Homo sapiens) (UniProt P78368); settings: Compound concentration 1000.0 nM
Chain of Casein kinase I isoform gamma-2 (Homo sapiens) (P78368 whole entry, looked up, canonical isoform): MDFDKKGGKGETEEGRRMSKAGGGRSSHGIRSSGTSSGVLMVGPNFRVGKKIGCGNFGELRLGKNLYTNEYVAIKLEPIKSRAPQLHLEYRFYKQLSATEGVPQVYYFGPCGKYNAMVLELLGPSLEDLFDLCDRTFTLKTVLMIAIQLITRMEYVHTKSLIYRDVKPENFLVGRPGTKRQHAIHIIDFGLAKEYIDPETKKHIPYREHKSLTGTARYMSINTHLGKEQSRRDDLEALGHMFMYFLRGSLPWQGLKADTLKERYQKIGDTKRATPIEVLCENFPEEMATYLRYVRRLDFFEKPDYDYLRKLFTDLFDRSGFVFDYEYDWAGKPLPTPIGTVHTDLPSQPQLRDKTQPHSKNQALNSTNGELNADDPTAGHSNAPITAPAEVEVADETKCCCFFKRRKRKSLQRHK

[35] = molecular target: Bone morphogenetic protein receptor type-1B (Homo sapiens) (UniProt O00238); settings: Compound concentration 1000.0 nM
[36] = molecular target: Death-associated protein kinase 3 (Homo sapiens) (UniProt O43293); settings: Compound concentration 1000.0 nM
[37] = molecular target: Serine/threonine-protein kinase PRP4 homolog (Homo sapiens) (UniProt Q13523); settings: Compound concentration 1000.0 nM
[38] = molecular target: Dual specificity protein kinase TTK (Homo sapiens) (UniProt P33981); settings: Compound concentration 1000.0 nM
[39] = molecular target: Atypical kinase COQ8B, mitochondrial (Homo sapiens) (UniProt Q96D53); settings: Compound concentration 1000.0 nM
[40] = molecular target: Testis-specific serine/threonine-protein kinase 1 (Homo sapiens) (UniProt Q9BXA7); settings: Compound concentration 1000.0 nM
Chain of Testis-specific serine/threonine-protein kinase 1 (Homo sapiens) (Q9BXA7 whole entry): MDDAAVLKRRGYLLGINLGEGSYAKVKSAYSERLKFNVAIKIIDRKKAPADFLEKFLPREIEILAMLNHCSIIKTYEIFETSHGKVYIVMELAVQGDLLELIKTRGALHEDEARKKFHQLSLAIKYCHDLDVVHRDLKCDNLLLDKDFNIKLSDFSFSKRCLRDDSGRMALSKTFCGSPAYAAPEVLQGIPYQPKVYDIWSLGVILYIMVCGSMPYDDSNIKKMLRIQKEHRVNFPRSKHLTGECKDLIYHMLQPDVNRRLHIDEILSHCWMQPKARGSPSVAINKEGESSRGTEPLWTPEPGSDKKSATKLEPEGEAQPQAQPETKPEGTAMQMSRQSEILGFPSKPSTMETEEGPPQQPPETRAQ

[41] = molecular target: Tyrosine-protein kinase Fes/Fps (Homo sapiens) (UniProt P07332); settings: Compound concentration 1000.0 nM
[42] = molecular target: Fibroblast growth factor receptor 1 (Homo sapiens) (UniProt P11362); settings: Compound concentration 1000.0 nM
[43] = molecular target: Serine/threonine-protein kinase SIK1 (Homo sapiens) (UniProt P57059); settings: Compound concentration 1000.0 nM
[44] = molecular target: Serine/threonine-protein kinase mTOR (Homo sapiens) (UniProt P42345); settings: Compound concentration 1000.0 nM
[45] = molecular target: Tyrosine-protein kinase Mer (Homo sapiens) (UniProt Q12866); settings: Compound concentration 1000.0 nM

CC(=O)N1CCC(c2ccc(C(=O)NC(=N)N)cc2C(F)(F)F)CC1 [BI 9627]
inactive: residual activity [1] 100% | residual activity [2] 100% | residual activity [3] 100% | residual activity [4] 100% | residual activity [5] 91% | residual activity [6] 97% | inhibition [7] 21.4% | residual activity [8] 93% | residual activity [9] 94% | residual activity [10] 100% | residual activity [11] 92% | residual activity [12] 100% | residual activity [13] 96% | residual activity [14] 100% | inhibition [15] 14.6% | residual activity [16] 97% | residual activity [17] 100% | residual activity [18] 100% | residual activity [19] 100% | residual activity [20] 85% | residual activity [21] 100% | residual activity [22] 97% | residual activity [23] 100% | residual activity [24] 100% | residual activity [25] 100% | residual activity [26] 95% | residual activity [27] 100% | residual activity [28] 91% | residual activity [29] 100% | residual activity [30] 95% | residual activity [31] 96% | residual activity [32] 100% | residual activity [33] 84% | residual activity [34] 100% | residual activity [35] 100% | residual activity [36] 100% | residual activity [37] 78% | residual activity [38] 100% | residual activity [39] 100% | residual activity [40] 100% | residual activity [41] 96% | residual activity [42] 100% | residual activity [43] 100% | residual activity [44] 100% | residual activity [45] 81%

CC(=O)N1CCC(c2ccc(C(=O)NC3=NCCN3)cc2C(F)(F)F)CC1 [BI 0054]
inactive: residual activity [1] 100% | residual activity [2] 100% | residual activity [3] 100% | residual activity [4] 100% | residual activity [5] 98% | residual activity [6] 100% | inhibition [7] 11.8% | residual activity [8] 80% | residual activity [9] 100% | residual activity [10] 91% | residual activity [11] 95% | residual activity [12] 100% | residual activity [13] 100% | residual activity [14] 100% | inhibition [15] 37.8% | residual activity [16] 80% | residual activity [17] 100% | residual activity [18] 100% | residual activity [19] 100% | residual activity [20] 88% | residual activity [21] 100% | residual activity [22] 100% | residual activity [23] 100% | residual activity [24] 100% | residual activity [25] 98% | residual activity [26] 92% | residual activity [27] 94% | residual activity [28] 100% | residual activity [29] 100% | residual activity [30] 72% | residual activity [31] 100% | residual activity [32] 100% | residual activity [33] 88% | residual activity [34] 100% | residual activity [35] 89% | residual activity [36] 84% | residual activity [37] 100% | residual activity [38] 100% | residual activity [39] 97% | residual activity [40] 100% | residual activity [41] 100% | residual activity [42] 100% | residual activity [43] 100% | residual activity [44] 67% | residual activity [45] 100%
